Measured values published in patent US10485808B2, “Selective progesterone receptor modulators (SPRM) and stabilized estrogen level in patient” (BAYER PHARMA AKTIENGESELLSCHAFT, priority 2017, dated 2019).

Experiments:
Assay type in all cases: in vivo, human
[1] = test system: healthy women of reproductive age; test: Study 15818: estradiol (E2) serum concentration after daily oral Compound 1
Protocol: Example 2: Circulating Endogenous Estrogen Concentrations in Healthy Women of Reproductive Age Receiving Compound 1 (Cp1)
Study protocol (N^o 15818): A randomized, double-blind, parallel-group, multi-center study to investigate the pharmacodynamics, pharmacokinetics and safety after daily oral administration of 4 different doses of Compound 1 in healthy women of reproductive age
Doses: 0.5 mg, 1 mg, 2 mg, or 4 mg once daily
Route of administration: Oral
Duration of treatment: 1×12 weeks (84 days)
• Age: 18-40 years • Smoking ≤10 cigarettes/day • Body mass index ≥18 and ≤32 kg/m^2 • Signed informed consent prior to study participation • No contraindication for intake of Compound 1 • Ovulation in pre-treatment cycle • Use of non-hormonal contraception during the study. Number of Subjects: see Table 1 for the number of subjects per Dosage Measurement of primary variable Estradiol: The estradiol (E2) serum concentration was assessed for each subject at the following Visit Days of the study, see FIG. 1 • Pre-treatment Day 9 (D9) corresponds to the period before start of Compound 1 uptake; the pre-treatment cycle starts on the first day of the subject waking up with menstrual bleeding with intensity more than spotting after screening examinations have shown that the subject is eligible for further participation. The pre-treatment period ends by the starting of next menstrual bleeding; • Treatment Day (D84) corresponds to last intake of Compound 1. The treatment phase started with the first and ended with the last intake of the study drug. The subjects have to start the intake of Compound 1 during the first week of the menstrual cycle after the pre-treatment cycle until the last Treatment Day (D84). • The follow-up cycle 1 started on the first day without study drug intake and will end in case of start of menstrual bleeding (i.e. when the subject is waking up with menstrual bleeding with intensity more than spotting). The first day of menstrual bleeding will define the start of follow-up cycle 2. Follow-up cycle 2 ended when the subjects report the next menstrual bleeding (i.e. first day of waking up with menstrual bleeding with intensity more than spotting).
During pre-treatment, end of treatment and at Follow-up Cycle 2, Estradiol (E2) serum concentrations are measured.
Eligible subjects were randomized to one of the treatment groups (0.5 mg, 1 mg, 2 mg, or 4 mg Compound 1). The treatment period consisted of 12 weeks (84 days) of daily tablet intake.

[2] = test system: women diagnosed with uterine fibroids; test: Study 15788: hot flush events during treatment
Excerpt: Example 5: Hot Flush Events in Study Subject Treated with Compound 1 (Cp1)
See full study description in Example 4.
Hot flush events were reported and monitored during treatment.

[3] = test system: healthy women of reproductive age; test: Study 15818: hot flush events during treatment period; settings: for Hot flush events, Events (%): 12 weeks
Excerpt: Example 3: Hot Flush Event in Study Subject Treated with Compound 1 (Cp1)
See full study description in Example 2.
Hot flush event were reported and monitored during treatment period.

[4] = Cp1 0.5 mg once daily oral, Follow-up cycle2 D 9
[5] = Cp1 0.5 mg once daily oral, Pre-treatment D 9
[6] = Cp1 0.5 mg once daily oral, Treatment D 84
[7] = Cp1 1 mg once daily oral, Follow-up cycle2 D 9
[8] = Cp1 1 mg once daily oral, Pre-treatment D 9
[9] = Cp1 1 mg once daily oral, Treatment D 84
[10] = Cp1 2 mg once daily oral, Follow-up cycle2 D 9
[11] = Cp1 2 mg once daily oral, Pre-treatment D 9
[12] = Cp1 2 mg once daily oral, Treatment D 84
[13] = Cp1 4 mg once daily oral, Follow-up cycle2 D 9
[14] = Cp1 4 mg once daily oral, Pre-treatment D 9
[15] = Cp1 4 mg once daily oral, Treatment D 84

C[C@]12C[C@H](c3ccc(S(C)(=O)=O)cc3)C3=C4CCC(=O)C=C4CC[C@H]3[C@@H]1CC[C@@]2(O)C(F)(F)C(F)(F)F [Compound 1, (11β,17β)-17-Hydroxy-11-[4-(methylsulphonyl)phenyl]-17-(pentafluoroethyl)estra-4,9-dien-3-one]
Change of estradiol (E2) concentrations during treatment ([1]; 0.5-4 mg once daily, 12 weeks): slight decrease
Estradiol concentrations in serum, Max [1, 4]: 262 pg/mL
Estradiol concentrations in serum, Mean [1, 4]: 116.1 pg/mL
Estradiol concentrations in serum, Median [1, 4]: 79.9 pg/mL
Estradiol concentrations in serum, Min [1, 4]: 17 pg/mL
Estradiol concentrations in serum, Max [1, 5]: 381 pg/mL
Estradiol concentrations in serum, Mean [1, 5]: 138 pg/mL
Estradiol concentrations in serum, Median [1, 5]: 104.5 pg/mL
Estradiol concentrations in serum, Min [1, 5]: 14 pg/mL
Estradiol concentrations in serum, Max [1, 6]: 423 pg/mL
Estradiol concentrations in serum, Mean [1, 6]: 135.6 pg/mL
Estradiol concentrations in serum, Median [1, 6]: about 80 pg/mL
Estradiol concentrations in serum, Min [1, 6]: 23 pg/mL
Estradiol concentrations in serum, Median ([1]; Cp1 0.5 mg once daily oral, Treatment D 84, listed as Cp1): 82 pg/mL
Estradiol concentrations in serum, Max [1, 7]: 305 pg/mL
Estradiol concentrations in serum, Mean [1, 7]: 143.8 pg/mL
Estradiol concentrations in serum, Median [1, 7]: 119.2 pg/mL
Estradiol concentrations in serum, Min [1, 7]: 39 pg/mL
Estradiol concentrations in serum, Max [1, 8]: 311 pg/mL
Estradiol concentrations in serum, Mean [1, 8]: 143.3 pg/mL
Estradiol concentrations in serum, Median [1, 8]: 92.3 pg/mL
Estradiol concentrations in serum, Min [1, 8]: 39 pg/mL
Estradiol concentrations in serum, Max [1, 9]: 276 pg/mL
Estradiol concentrations in serum, Mean [1, 9]: 119.4 pg/mL
Estradiol concentrations in serum, Median [1, 9]: about 80 pg/mL
Estradiol concentrations in serum, Min [1, 9]: 42 pg/mL
Estradiol concentrations in serum, Median ([1]; Cp1 1 mg once daily oral, Treatment D 84, listed as Cp1): 81.5 pg/mL
Estradiol concentrations in serum, Max [1, 10]: 395 pg/mL
Estradiol concentrations in serum, Mean [1, 10]: 123.9 pg/mL
Estradiol concentrations in serum, Median [1, 10]: 80.9 pg/mL
Estradiol concentrations in serum, Min [1, 10]: 33 pg/mL
Estradiol concentrations in serum, Max [1, 11]: 308 pg/mL
Estradiol concentrations in serum, Mean [1, 11]: 113.5 pg/mL
Estradiol concentrations in serum, Median [1, 11]: 82.2 pg/mL
Estradiol concentrations in serum, Min [1, 11]: 33 pg/mL
Estradiol concentrations in serum, Max [1, 12]: 330 pg/mL
Estradiol concentrations in serum, Mean [1, 12]: 91.2 pg/mL
Estradiol concentrations in serum, Median [1, 12]: about 80 pg/mL
Estradiol concentrations in serum, Min [1, 12]: 34 pg/mL
Estradiol concentrations in serum, Median ([1]; Cp1 2 mg once daily oral, Treatment D 84, listed as Cp1): 78.5 pg/mL
Estradiol concentrations in serum, Max [1, 13]: 279 pg/mL
Estradiol concentrations in serum, Mean [1, 13]: 109.9 pg/mL
Estradiol concentrations in serum, Median [1, 13]: 88.7 pg/mL
Estradiol concentrations in serum, Min [1, 13]: 41 pg/mL
Estradiol concentrations in serum, Max [1, 14]: 200 pg/mL
Estradiol concentrations in serum, Mean [1, 14]: 126.4 pg/mL
Estradiol concentrations in serum, Median [1, 14]: 122.9 pg/mL
Estradiol concentrations in serum, Min [1, 14]: 44 pg/mL
Estradiol concentrations in serum, Max [1, 15]: 81 pg/mL
Estradiol concentrations in serum, Mean [1, 15]: 53.9 pg/mL
Estradiol concentrations in serum, Median [1, 15]: about 50 pg/mL
Estradiol concentrations in serum, Min [1, 15]: 39 pg/mL
Estradiol concentrations in serum, Median ([1]; Cp1 4 mg once daily oral, Treatment D 84, listed as Cp1): 50.5 pg/mL
Reversibility of estradiol (E2) decrease after end of treatment ([1]; pre-treatment vs follow-up Cycle 2): completely reversible
Hot flush events, MILD, number of subjects ([2]; Cp1 0.5 mg, N = 60, 12 weeks): 5
Hot flush events, MILD, percent of subjects ([2]; Cp1 0.5 mg, N = 60, 12 weeks): 8.3%
Hot flush events, MODERATE, number of subjects ([2]; Cp1 0.5 mg, N = 60, 12 weeks): 0
Hot flush events, SEVERE, number of subjects ([2]; Cp1 0.5 mg, N = 60, 12 weeks): single
Hot flush events, SEVERE, percent of subjects ([2]; Cp1 0.5 mg, N = 60, 12 weeks): 1.7%
Hot flush events, Total, number of subjects ([2]; Cp1 0.5 mg, N = 60, 12 weeks): 6
Hot flush events, Total, percent of subjects ([2]; Cp1 0.5 mg, N = 60, 12 weeks): 0.0%
Hot flush events, SEVERE, number of subjects ([2]; Cp1 0.5 mg, N = 60, 12 weeks, listed as Cp1): 1
Hot flush events, MILD, number of subjects ([2]; Cp1 1 mg, N = 61, 12 weeks): 3
Hot flush events, MILD, percent of subjects ([2]; Cp1 1 mg, N = 61, 12 weeks): 4.9%
Hot flush events, MODERATE, number of subjects ([2]; Cp1 1 mg, N = 61, 12 weeks): 2
Hot flush events, MODERATE, percent of subjects ([2]; Cp1 1 mg, N = 61, 12 weeks): 3.3%
Hot flush events, SEVERE, number of subjects ([2]; Cp1 1 mg, N = 61, 12 weeks): 0
Hot flush events, Total, number of subjects ([2]; Cp1 1 mg, N = 61, 12 weeks): 5
Hot flush events, Total, percent of subjects ([2]; Cp1 1 mg, N = 61, 12 weeks): 8.2%
Hot flush events, MILD, number of subjects ([2]; Cp1 2 mg, N = 61, 12 weeks): 4
Hot flush events, MILD, percent of subjects ([2]; Cp1 2 mg, N = 61, 12 weeks): 6.6%
Hot flush events, MODERATE, number of subjects ([2]; Cp1 2 mg, N = 61, 12 weeks): 1
Hot flush events, MODERATE, percent of subjects ([2]; Cp1 2 mg, N = 61, 12 weeks): 1.6%
Hot flush events, SEVERE, number of subjects ([2]; Cp1 2 mg, N = 61, 12 weeks): 0
Hot flush events, Total, number of subjects ([2]; Cp1 2 mg, N = 61, 12 weeks): 5
Hot flush events, Total, percent of subjects ([2]; Cp1 2 mg, N = 61, 12 weeks): 8.2%
Hot flush events, MILD, number of subjects ([2]; Cp1 4 mg, N = 60, 12 weeks): 5
Hot flush events, MILD, percent of subjects ([2]; Cp1 4 mg, N = 60, 12 weeks): 8.3%
Hot flush events, MODERATE, number of subjects ([2]; Cp1 4 mg, N = 60, 12 weeks): 3
Hot flush events, MODERATE, percent of subjects ([2]; Cp1 4 mg, N = 60, 12 weeks): 5.0%
Hot flush events, SEVERE, number of subjects ([2]; Cp1 4 mg, N = 60, 12 weeks): 0
Hot flush events, Total, number of subjects ([2]; Cp1 4 mg, N = 60, 12 weeks): 8
Hot flush events, Total, percent of subjects ([2]; Cp1 4 mg, N = 60, 12 weeks): 13.3%
Subjects showing mild to moderate hot flushes, overall ([2]; all dose groups, 12 weeks): no more than 14%
Hot flush events, Events (%) ([3]; Cp1 0.5 mg once daily oral): 5.6%
Hot flush events, Events (%) ([3]; Cp1 1.0 mg once daily oral): 11.1%
Hot flush events, Events (%) ([3]; Cp1 2.0 mg once daily oral): 17.6%
Hot flush events, Events (%) ([3]; Cp1 4.0 mg once daily oral): 29.4%
Severe hot flushes ([3]; all dose groups 0.5-4 mg): No severe hot flushes were reported
Subjects reporting hot flush, total study subjects ([3]; all dose groups 0.5-4 mg): 11
